Entries after “also recorded” stand apart in the source; their conditions may differ.
Legend:
[1] = system: MCF-7 breast cancer cells; assay: Apoptosis/necrosis detection (Annexin V-FITC/PI, image cytometry), MCF-7; type: cell-based, human; conditions: MCF-7, IC50 concentration, 48 h
Procedure: The MTT test results prompted further study. Staining with propidium iodide and Annexin V-FITC was performed to distinguish apoptotic from necrotic cell death.
Apoptosis was analyzed using the NucleoCounter® NC-3000™ (Chemometec Inc., Lillerød, Denmark) according to the manufacturer’s protocol using Annexin V from Biotium (Fremont, CA, USA). MCF-7 and MDA-MB-231 cells were seeded into 6-well plates (2 × 10^5 cells/mL) and cultured until 70–80% confluence was reached. […] Scatter plots were used to determine the proportion of healthy cells (Annexin V-negative/PI-negative cells), early apoptotic cells (Annexin V-positive/PI-negative cells), late apoptotic cells (Annexin V-positive/PI-positive cells), and necrotic cells (Annexin V-negative/PI-positive cells). Data were derived from three independent experiments with three replicates.

CYP3A4 = target: T1, CYP3A4 (Homo sapiens, UniProt P08684); assay: Influence on CYP3A4 activity (P450-Glo); type: in vitro ADME
T1 construct: purchased Promega (Madison, WI, USA)
Procedure: (§1) Treatment of elderly patients who suffer from cancer or degenerative CNS diseases usually requires the use of more than one medication at the same time, which can result in a greater risk of DDIs. […] The results were compared to the selective CYP3A4 inhibitor ketoconazole and selective CYP2D6 inhibitor quinidine.
(§2) All assays and protocols used for the determination of compound ADME-Tox parameters were described previously. In brief, the metabolic stability assay was performed on HLMs, purchased from Sigma-Aldrich (St. Louis, MO, USA). ADS10310 was incubated with HLMs for 120 min in Tris buffer (pH = 7.4) at 37 °C. NADPH regeneration system Promega (Madison, WI, USA) was added to initiate whereas methanol was added to terminate the reaction. The LC/MS analyses of the centrifuged reaction mixture were obtained on Waters ACQUITY™ TQD system (Waters, Milford, CT, USA). The in silico prediction of most probable sites of ADS10310 metabolism was performed by MetaSite 6.0.1 software (Molecular Discovery Ltd., Hertfordshire, UK). […] The results were calculated from two independent experiments.
(§3) The luminescent signal and the absorbances (measured at 490 nm) in DDIs and safety assays were measured by using an EnSpire PerkinElmer microplate reader (Waltham, MA, USA). […]

CYP2D6 = target: T2, CYP2D6 (Homo sapiens, UniProt P10635); assay: Influence on CYP2D6 activity (P450-Glo); type: in vitro ADME
T2 construct: purchased Promega (Madison, WI, USA)
Procedure: as §1, §2, §3

[2] = In vitro metabolic stability in human liver microsomes; type: in vitro ADME
Procedure: In addition to biological activity, drug-likeness is equally important in drug discovery, and should be considered at the early stage of the drug development process. Therefore, ADS10310 was subjected to testing for several ADME-Tox parameters, including metabolic stability.
All assays and protocols used for the determination of compound ADME-Tox parameters were described previously. In brief, the metabolic stability assay was performed on HLMs, purchased from Sigma-Aldrich (St. Louis, MO, USA). ADS10310 was incubated with HLMs for 120 min in Tris buffer (pH = 7.4) at 37 °C. NADPH regeneration system Promega (Madison, WI, USA) was added to initiate whereas methanol was added to terminate the reaction. The LC/MS analyses of the centrifuged reaction mixture were obtained on Waters ACQUITY™ TQD system (Waters, Milford, CT, USA). The in silico prediction of most probable sites of ADS10310 metabolism was performed by MetaSite 6.0.1 software (Molecular Discovery Ltd., Hertfordshire, UK). To predict potential DDIs the CYP3A4 and CYP2D6 P450-Glo™ kits provided by Promega (Madison, WI, USA) were used according to provided protocols. The results were calculated from two independent experiments.

T2 sequence (P10635 whole entry): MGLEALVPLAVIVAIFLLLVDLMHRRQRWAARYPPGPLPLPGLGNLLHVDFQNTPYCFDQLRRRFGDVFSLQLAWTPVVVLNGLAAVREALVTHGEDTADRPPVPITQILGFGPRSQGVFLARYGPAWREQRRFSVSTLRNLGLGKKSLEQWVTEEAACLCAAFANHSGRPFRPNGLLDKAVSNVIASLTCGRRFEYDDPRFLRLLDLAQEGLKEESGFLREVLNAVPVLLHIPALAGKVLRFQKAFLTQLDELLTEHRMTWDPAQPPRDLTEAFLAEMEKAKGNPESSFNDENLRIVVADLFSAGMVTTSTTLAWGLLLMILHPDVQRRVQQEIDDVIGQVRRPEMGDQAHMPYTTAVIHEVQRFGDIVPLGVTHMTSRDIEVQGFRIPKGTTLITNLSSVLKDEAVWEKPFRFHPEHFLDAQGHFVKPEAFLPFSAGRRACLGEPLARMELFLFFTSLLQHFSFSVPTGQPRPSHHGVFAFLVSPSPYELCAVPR
T1 sequence (P08684 whole entry): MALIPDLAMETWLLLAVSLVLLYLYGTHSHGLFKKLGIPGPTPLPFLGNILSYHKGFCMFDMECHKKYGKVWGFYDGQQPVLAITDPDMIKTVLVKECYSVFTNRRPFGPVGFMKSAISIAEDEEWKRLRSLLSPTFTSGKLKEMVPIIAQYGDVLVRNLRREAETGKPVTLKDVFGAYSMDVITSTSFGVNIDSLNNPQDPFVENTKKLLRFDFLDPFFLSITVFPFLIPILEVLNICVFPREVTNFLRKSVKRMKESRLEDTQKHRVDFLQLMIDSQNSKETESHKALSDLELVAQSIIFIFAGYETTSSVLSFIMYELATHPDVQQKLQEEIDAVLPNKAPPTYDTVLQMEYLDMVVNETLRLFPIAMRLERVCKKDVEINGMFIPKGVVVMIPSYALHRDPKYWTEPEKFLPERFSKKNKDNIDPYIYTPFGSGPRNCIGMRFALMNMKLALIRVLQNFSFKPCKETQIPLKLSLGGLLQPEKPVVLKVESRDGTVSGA

Row | Structure (SMILES) | early apoptotic cells (Q1lr) [1] | late apoptotic cells (Q1ur) [1] | influence on CYP3A4 activity (CYP3A4) | CYP2D6 inhibition (in words) (CYP2D6) | decrease of CYP2D6 activity (CYP2D6; lowest tested dose of 0.1 µM) | Substrate Remaining ([2]; 120 min incubation with HLMs, Tris buffer pH 7.4, 37 °C) | Metabolic Pathway ([2]; HLMs, metabolites M1-M3 by LC/MS)
1 | N=C(N)N(CCCCN1CCN(CCCCCCCOc2ccccc2)CC1)Cc1ccccc1 [ADS1017] | 2% | 38% |  |  |  |  | 
2 | Cl.Cl.N=C(NCCCCc1ccc(Cl)cc1)NCCCCN1CCCCC1 [ADS10310] |  |  | did not show any influence on CYP3A4 activity | strongly inhibited CYP2D6; also recorded: strong inhibitor of CYP2D6 activity | more than 50% | 73.6% | decomposition and triple hydroxylation

— publication PMC10223552 (Pharmaceuticals, 2023)
